Assay results as given in the NIST ThermoML archive (doi:10.1016/j.jct.2012.01.028).

Settings: 101.33 kPa, Liquid; for electrical conductivity: Alternating current cell with electrodes; for speed of sound: Sing-around technique in a fixed-path interferometer; for mass density: Vibrating tube method

CCCCn1cc[n+](C)c1.F[P-](F)(F)(F)(F)F [1-butyl-3-methylimidazolium hexafluorophosphate]
Settings | electrical conductivity [S/m] | mass density [kg/m3] | speed of sound [m/s]
293.15 K | 0.137 | 1371.61 | 1454.9
298.15 K | 0.183 | 1367.65 | 1442.6
303.15 K | 0.224 | 1363.13 | 1430.7
308.15 K | 0.267 | 1359.04 | 1419
313.15 K | 0.314 | 1354.93 | 1407.6
318.15 K | 0.384 | 1350.83 | 1396.3
323.15 K | 0.459 | 1346.72 | 1385.2
